From ChEMBL document CHEMBL5678804 (Cancer Cell, 2011)
pIC50: −log10 of the molar value.

What was measured:
[1] = target: MAP kinase-interacting serine/threonine-protein kinase 2 (Homo sapiens, UniProt Q9HBH9); assay: Inhibition of human wild type MNK2 using RB-S6P as substrate preincubated for 2 hrs followed by ATP addition and measured every 2 mins for […] by spectrophotometric analysis
[2] = target: Rho-associated protein kinase 1 (Homo sapiens, UniProt Q13464); assay: Inhibition of human wild type ROCK1 using 3xChocktide-PKC([…] to […]) as substrate preincubated for 2 hrs followed by ATP addition and measured every 2 mins for […] by spectrophotometric analysis
[3] = target: Tyrosine-protein kinase JAK2 (Homo sapiens, UniProt O60674); assay: Inhibition of human wild type JAK2 using Poly(Ala,Glu,Lys,Tyr)6:2:5:1 as substrate preincubated for 2 hrs followed by ATP addition and measured every 2 mins for […] by spectrophotometric analysis
[4] = target: Dual specificity protein kinase CLK1 (Homo sapiens, UniProt P49759); assay: Inhibition of human wild type CLK1 using autophos as substrate preincubated for 2 hrs followed by ATP addition and measured every 2 mins for […] by spectrophotometric analysis
[5] = target: Dual specificity mitogen-activated protein kinase kinase 1 (Homo sapiens, UniProt Q02750); assay: Inhibition of human wild type MEK1 using ERK2-KR as substrate preincubated for 2 hrs followed by ATP addition and measured every 2 mins for […] by spectrophotometric analysis
[6] = target: Serine/threonine-protein kinase Sgk1 (Homo sapiens, UniProt O00141); assay: Inhibition of human wild type SGK1 using RBER-GSK3([…] to […]) as substrate preincubated for 2 hrs followed by ATP addition and measured every 2 mins for […] by spectrophotometric analysis
[7] = target: Cyclin-dependent kinase 1 (Homo sapiens, UniProt P06493); assay: Inhibition of human wild type CDK1 using PolyEY as substrate preincubated for 2 hrs followed by ATP addition and measured every 2 mins for […] by spectrophotometric analysis
[8] = test system: Tyrosine-protein kinase ABL1 (Homo sapiens), P00519 [T315I]; conditions: time 2.0 hrs
[9] = target: Receptor-interacting serine/threonine-protein kinase 2 (Homo sapiens, UniProt O43353); assay: Inhibition of human wild type RIPK2 using RBER-CHKtide as substrate preincubated for 2 hrs followed by ATP addition and measured every 2 mins for […] by spectrophotometric analysis
[10] = target: Vascular endothelial growth factor receptor 3 (Homo sapiens, UniProt P35916); assay: Inhibition of human wild type FLT4 using PolyEY as substrate preincubated for 2 hrs followed by ATP addition and measured every 2 mins for […] by spectrophotometric analysis
Myotonin-protein kinase = Myotonin-protein kinase (Homo sapiens, UniProt Q09013); assay: Inhibition of human wild type DMPK using bio-4xCHKT as substrate preincubated for 2 hrs followed by ATP addition and measured every 2 mins for […] by spectrophotometric analysis
[11] = target: Myosin light chain kinase 2, skeletal/cardiac muscle (Homo sapiens, UniProt Q9H1R3); assay: Inhibition of human wild type MLCK2 using RB-S6P as substrate preincubated for 2 hrs followed by ATP addition and measured every 2 mins for […] by spectrophotometric analysis
[12] = target: Ribosomal protein S6 kinase alpha-4 (Homo sapiens, UniProt O75676); assay: Inhibition of human wild type MSK2 using RBER-CHKtide as substrate preincubated for 2 hrs followed by ATP addition and measured every 2 mins for […] by spectrophotometric analysis
Sequence of Ribosomal protein S6 kinase alpha-4 (O75676 whole entry): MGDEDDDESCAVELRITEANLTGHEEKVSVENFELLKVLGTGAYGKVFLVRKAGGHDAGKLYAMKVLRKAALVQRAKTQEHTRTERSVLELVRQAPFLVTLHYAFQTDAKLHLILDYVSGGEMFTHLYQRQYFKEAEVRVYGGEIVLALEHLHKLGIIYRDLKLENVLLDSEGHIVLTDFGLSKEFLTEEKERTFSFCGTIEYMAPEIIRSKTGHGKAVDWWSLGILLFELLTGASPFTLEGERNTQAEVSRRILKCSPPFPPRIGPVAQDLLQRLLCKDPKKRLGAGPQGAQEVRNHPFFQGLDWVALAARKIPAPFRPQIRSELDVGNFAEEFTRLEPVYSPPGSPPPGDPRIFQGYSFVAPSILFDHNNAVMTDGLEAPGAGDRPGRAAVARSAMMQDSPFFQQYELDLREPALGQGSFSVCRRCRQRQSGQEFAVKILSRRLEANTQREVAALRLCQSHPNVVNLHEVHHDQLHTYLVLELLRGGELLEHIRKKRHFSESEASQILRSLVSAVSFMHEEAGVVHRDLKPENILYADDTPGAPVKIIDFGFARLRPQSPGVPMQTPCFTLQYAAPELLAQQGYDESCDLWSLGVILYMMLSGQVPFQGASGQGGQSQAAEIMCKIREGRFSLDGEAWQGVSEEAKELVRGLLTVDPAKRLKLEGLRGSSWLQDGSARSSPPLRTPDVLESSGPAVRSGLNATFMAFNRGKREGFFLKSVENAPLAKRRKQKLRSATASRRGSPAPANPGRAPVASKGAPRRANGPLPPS

[13] = target: MAP kinase-interacting serine/threonine-protein kinase 1 (Homo sapiens, UniProt Q9BUB5); assay: Inhibition of human wild type MNK1 using RB-S6P as substrate preincubated for 2 hrs followed by ATP addition and measured every 2 mins for […] by spectrophotometric analysis
[14] = target: Tyrosine-protein kinase TXK (Homo sapiens, UniProt P42681); assay: Inhibition of human wild type TXK using RBER-CHKtide as substrate preincubated for 2 hrs followed by ATP addition and measured every 2 mins for […] by spectrophotometric analysis
[15] = target: Serine/threonine-protein kinase Chk1 (Homo sapiens, UniProt O14757); assay: Inhibition of human wild type CHK1 using RBER-CHKtide as substrate preincubated for 2 hrs followed by ATP addition and measured every 2 mins for […] by spectrophotometric analysis
[16] = target: Maternal embryonic leucine zipper kinase (Homo sapiens, UniProt Q14680); assay: Inhibition of human wild type MELK using RBER-CHKtide as substrate preincubated for 2 hrs followed by ATP addition and measured every 2 mins for […] by spectrophotometric analysis
[17] = target: Serine/threonine-protein kinase 25 (Homo sapiens, UniProt O00506); assay: Inhibition of human wild type STK25 using Casein as substrate preincubated for 2 hrs followed by ATP addition and measured every 2 mins for […] by spectrophotometric analysis
[18] = target: Non-receptor tyrosine-protein kinase TYK2 (Homo sapiens, UniProt P29597); assay: Inhibition of human wild type TYK2 using Poly(Ala,Glu,Lys,Tyr)6:2:5:1 as substrate preincubated for 2 hrs followed by ATP addition and measured every 2 mins for […] by spectrophotometric analysis
[19] = target: Serine/threonine-protein kinase Nek1 (Homo sapiens, UniProt Q96PY6); assay: Inhibition of human wild type NEK1 using RBER-CHKtide as substrate preincubated for 2 hrs followed by ATP addition and measured every 2 mins for […] by spectrophotometric analysis
[20] = target: Mitogen-activated protein kinase 10 (Homo sapiens, UniProt P53779); assay: Inhibition of human wild type JNK3 using ATF2 as substrate preincubated for 2 hrs followed by ATP addition and measured every 2 mins for […] by spectrophotometric analysis
[21] = target: Activin receptor type-1-like (Homo sapiens, UniProt P37023); assay: Inhibition of human wild type ALK1 using Casein as substrate preincubated for 2 hrs followed by ATP addition and measured every 2 mins for […] by spectrophotometric analysis
BaF3 = assay: cells; conditions: Mus musculus, BaF3, 72 h
[22] = target: Tyrosine-protein kinase Fes/Fps (Homo sapiens, UniProt P07332); assay: Inhibition of human wild type FES using PolyEY as substrate preincubated for 2 hrs followed by ATP addition and measured every 2 mins for […] by spectrophotometric analysis
Sequence of Tyrosine-protein kinase Fes/Fps (P07332 whole entry): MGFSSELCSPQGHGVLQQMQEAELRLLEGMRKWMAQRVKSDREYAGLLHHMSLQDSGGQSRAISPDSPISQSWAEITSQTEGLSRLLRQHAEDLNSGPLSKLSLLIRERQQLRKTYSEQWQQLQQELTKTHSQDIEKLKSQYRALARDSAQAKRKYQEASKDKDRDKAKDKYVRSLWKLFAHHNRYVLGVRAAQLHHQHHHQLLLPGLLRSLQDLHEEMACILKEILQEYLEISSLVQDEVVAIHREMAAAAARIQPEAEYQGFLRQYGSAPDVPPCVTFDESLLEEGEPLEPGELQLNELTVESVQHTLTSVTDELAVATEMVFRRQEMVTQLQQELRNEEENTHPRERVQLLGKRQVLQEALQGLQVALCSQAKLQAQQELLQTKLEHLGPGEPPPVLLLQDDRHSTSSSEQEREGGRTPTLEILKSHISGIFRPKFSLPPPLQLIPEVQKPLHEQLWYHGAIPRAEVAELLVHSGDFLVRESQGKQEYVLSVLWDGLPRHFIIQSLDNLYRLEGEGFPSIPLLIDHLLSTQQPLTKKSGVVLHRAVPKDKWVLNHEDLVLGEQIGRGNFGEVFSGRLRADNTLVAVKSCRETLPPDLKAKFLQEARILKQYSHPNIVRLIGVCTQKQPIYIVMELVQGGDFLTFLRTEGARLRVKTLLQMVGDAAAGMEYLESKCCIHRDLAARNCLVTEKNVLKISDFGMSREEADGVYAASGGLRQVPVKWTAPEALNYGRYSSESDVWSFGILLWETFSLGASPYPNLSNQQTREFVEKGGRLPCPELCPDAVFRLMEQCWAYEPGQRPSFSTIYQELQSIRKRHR

[23] = target: Mitogen-activated protein kinase kinase kinase 5 (Homo sapiens, UniProt Q99683); assay: Inhibition of human wild type ASK1 using RBER-GSK3([…] to […]) as substrate preincubated for 2 hrs followed by ATP addition and measured every 2 mins for […] by spectrophotometric analysis
Sequence of Mitogen-activated protein kinase kinase kinase 5 (Q99683 whole entry): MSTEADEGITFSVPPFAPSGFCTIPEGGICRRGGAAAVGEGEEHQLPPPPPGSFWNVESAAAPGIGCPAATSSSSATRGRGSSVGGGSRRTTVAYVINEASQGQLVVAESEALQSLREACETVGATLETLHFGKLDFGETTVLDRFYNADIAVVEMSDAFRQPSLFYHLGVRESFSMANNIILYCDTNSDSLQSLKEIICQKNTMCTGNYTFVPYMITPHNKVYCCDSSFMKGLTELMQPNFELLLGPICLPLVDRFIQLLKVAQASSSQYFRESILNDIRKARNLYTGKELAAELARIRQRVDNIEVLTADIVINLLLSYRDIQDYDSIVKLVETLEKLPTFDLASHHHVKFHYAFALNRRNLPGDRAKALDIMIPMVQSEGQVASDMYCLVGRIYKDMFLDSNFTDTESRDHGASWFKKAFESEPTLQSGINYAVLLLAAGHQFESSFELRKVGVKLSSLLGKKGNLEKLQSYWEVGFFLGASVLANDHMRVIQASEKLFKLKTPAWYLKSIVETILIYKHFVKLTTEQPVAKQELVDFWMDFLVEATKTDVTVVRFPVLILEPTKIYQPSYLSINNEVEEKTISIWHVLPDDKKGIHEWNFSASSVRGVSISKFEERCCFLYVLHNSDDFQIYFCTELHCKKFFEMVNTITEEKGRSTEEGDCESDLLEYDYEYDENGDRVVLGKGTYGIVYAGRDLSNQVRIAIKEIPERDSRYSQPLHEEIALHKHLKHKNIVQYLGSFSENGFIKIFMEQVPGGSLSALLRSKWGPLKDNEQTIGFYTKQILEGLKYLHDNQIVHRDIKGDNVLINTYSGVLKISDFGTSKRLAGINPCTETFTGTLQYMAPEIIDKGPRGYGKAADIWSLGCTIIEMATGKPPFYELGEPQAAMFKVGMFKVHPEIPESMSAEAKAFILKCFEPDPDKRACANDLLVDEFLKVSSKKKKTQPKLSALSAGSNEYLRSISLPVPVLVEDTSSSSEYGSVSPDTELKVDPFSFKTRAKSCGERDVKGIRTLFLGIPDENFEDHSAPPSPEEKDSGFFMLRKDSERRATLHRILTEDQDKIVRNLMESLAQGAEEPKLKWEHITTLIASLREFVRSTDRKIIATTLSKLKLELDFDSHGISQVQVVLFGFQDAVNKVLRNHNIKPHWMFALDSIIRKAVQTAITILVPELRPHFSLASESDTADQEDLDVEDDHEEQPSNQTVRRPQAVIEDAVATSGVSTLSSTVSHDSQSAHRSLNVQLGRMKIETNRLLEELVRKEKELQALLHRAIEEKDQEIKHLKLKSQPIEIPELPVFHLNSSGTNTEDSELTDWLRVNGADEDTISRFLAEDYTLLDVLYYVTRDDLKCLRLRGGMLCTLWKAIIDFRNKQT

Aurora kinase C = Aurora kinase C (Homo sapiens, UniProt Q9UQB9); assay: Inhibition of human wild type AuroraC using bio-4xCHKT as substrate preincubated for 2 hrs followed by ATP addition and measured every 2 mins for […] by spectrophotometric analysis
[24] = target: Tyrosine-protein kinase Mer (Homo sapiens, UniProt Q12866); assay: Inhibition of human wild type MER using PolyEY as substrate preincubated for 2 hrs followed by ATP addition and measured every 2 mins for […] by spectrophotometric analysis
Sequence of Tyrosine-protein kinase Mer (Q12866 whole entry): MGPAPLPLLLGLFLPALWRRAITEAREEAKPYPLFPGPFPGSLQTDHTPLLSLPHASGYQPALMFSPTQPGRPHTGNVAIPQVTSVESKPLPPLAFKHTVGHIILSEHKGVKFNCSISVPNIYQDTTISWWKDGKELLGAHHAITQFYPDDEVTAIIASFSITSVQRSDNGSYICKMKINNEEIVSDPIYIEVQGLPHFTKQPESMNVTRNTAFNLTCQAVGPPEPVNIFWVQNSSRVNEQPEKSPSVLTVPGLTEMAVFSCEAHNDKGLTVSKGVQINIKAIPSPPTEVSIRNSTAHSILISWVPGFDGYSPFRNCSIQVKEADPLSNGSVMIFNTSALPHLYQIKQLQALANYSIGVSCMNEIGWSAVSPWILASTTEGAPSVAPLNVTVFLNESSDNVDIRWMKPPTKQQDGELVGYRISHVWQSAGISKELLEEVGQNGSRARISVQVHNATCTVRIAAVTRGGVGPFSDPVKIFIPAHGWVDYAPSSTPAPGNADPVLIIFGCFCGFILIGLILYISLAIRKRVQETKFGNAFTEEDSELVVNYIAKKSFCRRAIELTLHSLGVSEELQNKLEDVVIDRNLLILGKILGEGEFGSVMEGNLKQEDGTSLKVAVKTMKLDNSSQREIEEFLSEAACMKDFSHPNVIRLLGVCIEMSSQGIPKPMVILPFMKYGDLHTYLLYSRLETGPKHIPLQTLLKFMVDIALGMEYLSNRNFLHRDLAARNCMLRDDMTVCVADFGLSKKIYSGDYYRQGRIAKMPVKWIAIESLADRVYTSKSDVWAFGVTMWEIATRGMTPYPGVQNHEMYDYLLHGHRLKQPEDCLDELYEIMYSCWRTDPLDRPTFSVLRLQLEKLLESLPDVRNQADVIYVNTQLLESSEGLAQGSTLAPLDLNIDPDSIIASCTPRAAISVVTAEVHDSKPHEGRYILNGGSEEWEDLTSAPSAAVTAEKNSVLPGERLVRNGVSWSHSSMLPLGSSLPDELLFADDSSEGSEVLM

[25] = target: Platelet-derived growth factor receptor alpha (Homo sapiens, UniProt P16234); assay: Inhibition of human wild type PDGFR alpha using Poly(Ala,Glu,Lys,Tyr)6:2:5:1 as substrate preincubated for 2 hrs followed by ATP addition and measured every 2 mins for […] by spectrophotometric analysis
Sequence of Platelet-derived growth factor receptor alpha (P16234 whole entry): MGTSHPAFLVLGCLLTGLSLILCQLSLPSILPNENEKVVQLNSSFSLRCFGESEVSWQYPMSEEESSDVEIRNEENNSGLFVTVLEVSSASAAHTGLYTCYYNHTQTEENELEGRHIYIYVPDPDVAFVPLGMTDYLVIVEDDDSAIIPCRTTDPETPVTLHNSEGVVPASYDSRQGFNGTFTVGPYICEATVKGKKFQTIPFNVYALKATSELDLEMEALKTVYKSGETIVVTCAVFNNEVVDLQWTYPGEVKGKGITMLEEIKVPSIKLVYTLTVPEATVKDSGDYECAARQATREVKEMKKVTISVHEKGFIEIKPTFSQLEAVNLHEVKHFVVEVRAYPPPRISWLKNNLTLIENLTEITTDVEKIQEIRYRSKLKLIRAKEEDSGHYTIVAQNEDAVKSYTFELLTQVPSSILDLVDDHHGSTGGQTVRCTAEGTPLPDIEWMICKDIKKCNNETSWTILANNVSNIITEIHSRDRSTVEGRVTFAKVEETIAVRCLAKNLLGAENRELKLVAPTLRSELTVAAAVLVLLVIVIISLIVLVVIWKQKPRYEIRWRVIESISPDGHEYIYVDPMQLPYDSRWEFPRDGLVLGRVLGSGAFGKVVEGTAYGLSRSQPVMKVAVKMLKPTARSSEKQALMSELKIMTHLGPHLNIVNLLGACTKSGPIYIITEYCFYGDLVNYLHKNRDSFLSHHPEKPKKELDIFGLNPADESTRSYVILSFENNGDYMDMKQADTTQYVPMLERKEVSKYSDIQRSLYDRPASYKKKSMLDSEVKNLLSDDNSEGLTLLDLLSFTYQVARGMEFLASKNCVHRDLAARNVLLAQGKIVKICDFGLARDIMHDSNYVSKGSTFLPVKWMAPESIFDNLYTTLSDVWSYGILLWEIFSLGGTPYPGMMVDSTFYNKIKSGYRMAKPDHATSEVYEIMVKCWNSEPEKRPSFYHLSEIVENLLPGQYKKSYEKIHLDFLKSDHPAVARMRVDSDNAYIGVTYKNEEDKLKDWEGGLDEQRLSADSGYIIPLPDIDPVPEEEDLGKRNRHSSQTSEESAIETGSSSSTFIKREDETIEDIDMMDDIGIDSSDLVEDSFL

- pIC50 [1]: 6.40
- pIC50 [2]: < 6.00
- pIC50 [3]: < 6.00
- pIC50 [4]: < 6.00
- pIC50 [5]: < 6.00
- pIC50 [6]: < 6.00
- pIC50 [7]: 6.54
- T1/2 [8]: 8.97 h
- pIC50 [9]: < 6.00
- pIC50 [10]: 6.62
- pIC50 (Myotonin-protein kinase): < 6.00
- pIC50 [11]: < 6.00
- pIC50 [12]: < 6.00
- pIC50 [13]: < 6.00
- pIC50 [14]: < 6.00
- pIC50 [15]: < 6.00
- pIC50 [16]: < 6.00
- pIC50 [17]: < 6.00
- pIC50 [18]: < 6.00
- pIC50 [19]: < 6.00
- pIC50 [20]: < 6.00
- pIC50 [21]: < 6.00
- pIC50 (BaF3): 8.22
- pIC50 [22]: 6.80
- pIC50 [23]: < 6.00
- pIC50 (Aurora kinase C): < 6.00
- pIC50 [24]: 8.12
- pIC50 [25]: 7.15
Structure (SMILES): CNC(=O)c1cc(Oc2ccc(NC(=O)Nc3cc(C(C)(C)C)nn3-c3ccc4ncccc4c3)c(F)c2)ccn1 [REBASTINIB]
